Reference: patent US8026211B2, “Methods and formulations for increasing intestinal function” (Technion Research & Development Foundation Ltd., priority 2004, dated 2011)

Experiments:
Type in all cases: in vivo
enterocytes = experiment: Rat model of SBS: enterocyte apoptosis (TUNEL assay); details: SBS rats, oral insulin
Method: Animal treatment: Animals were obtained from the Rappaport Faculty of Medicine (Technion, Haifa, Israel). Male rats weighing 240-260 g were kept in individual stainless steel cages at constant temperature and humidity, and a 12-hour light-dark cycle was maintained. Rats were fasted 12 hours prior to the experiment with free access to water. Animals underwent one of two surgical procedures: bowel transection and re-anastomosis or 75% bowel resection and anastomosis. General anesthesia was induced with Pentobarbital (IP 40 mg/kg). Using sterile techniques, the abdomen was opened using a midline incision. […]
(§1) Group C—SBS-Insulin (SBS-INS, n=13) rats underwent bowel resection and were fed regular chow diet and water containing insulin (ACTRAPID insulin, NOVO NORDISK, Denmark) at concentration of 1 u/ml. Food and fluid intake of animals were monitored as well as weight for a period of 14 days following treatment after which the animals were sacrificed following intraperitoneal injection of pentobarbital (75 mg/kg).
Apoptosis of enterocytes was assessed by terminal […] nick-end labeling (TUNEL) immunohistochemical assay using the I.S. Cell Death Detection kit (Boehringer Mannheim GmbH, Mannheim, Germany). […] For each group, the number of stained cells was counted in at ten villi in areas without necrosis. […]

[1] = test system: rat model of short bowel syndrome; experiment: Rat model of SBS: histology, villus height and crypt depth
Method: (§2) Animal treatment: Animals were obtained from the Rappaport Faculty of Medicine (Technion, Haifa, Israel). Male rats weighing 240-260 g were kept in individual stainless steel cages at constant temperature and humidity, and a 12-hour light-dark cycle was maintained. Rats were fasted 12 hours prior to the experiment with free access to water. Animals underwent one of two surgical procedures: bowel transection and re-anastomosis or 75% bowel resection and anastomosis. General anesthesia was induced with Pentobarbital (IP 40 mg/kg). Using sterile techniques, the abdomen was opened using a midline incision. In sham rats, simple bowel transection and end-to-end re-anastomosis was performed 15 cm proximal to ileo-cecal junction. In SBS animals, small bowel was resected from a point 5 cm distal to the ligament of Treitz to a point 10 cm proximal to the ileo-cecal junction. Bowel continuity was restored by end-to-end anastomosis using 5-0 Vicryl interrupted sutures. For all operations, the abdominal cavity was closed in two layers with a running suture of 3-0 Dexon. Prior to closure of the abdomen, the rats were resuscitated with a 3 ml intraperitoneal injection of warm normal saline. Rats were fasted for 24 hours but were allowed free access to water.
as §1
Segments of small bowel were fixed for 24 hours in 10% formalin and processed into standard paraffin blocks. Five-micron tissue slices stained with hematoxylin-eosin. The sections were studied microscopically using a micrometer eyepiece. Histological images were loaded on a 760×570 pixels resolution buffer using a computerized image analysis system composed of a trichip RGB video-camera (Sony, Japan), installed on a light microscope (Zeiss, Germany) and attached to an IBM compatible personal computer (Pentium III, MMX, 450 mhz, 125 MB RAM), equipped with a frame grabber. […] The villus height and crypt depth were measured using the Image Pro Plus 4 image analysis software (Media Cybernetics, Baltimore, Md., USA). Ten villi and crypts in each section were measured and the mean reading was recorded in microns.

[2] = test system: rat model of short bowel syndrome; experiment: Rat model of SBS: body weight and intestinal adaptation parameters (bowel circumference, bowel and mucosal weight, mucosal DNA and protein)
Method: as §2
Experimental design: Forty rats were randomly assigned to one of three groups:
Group A—sham-rats underwent bowel transection (sham, n=14) and than fed with regular chow diet.
Group B—SBS-animals underwent bowel resection (SBS, n=13) and than fed regular chow diet.
as §1
Intestinal adaptation parameters: The small bowel was rapidly removed, rinsed with cold isotonic saline and divided into two segments: jejunum proximal to anastomosis and terminal ileum. Each segment was weighed, cut longitudinally, bowel circumference was measured in three equidistant points as described by Dowling [Dowling R H, Booth C C, 1967, Clin Sci; 32: 139-149] and the mean circumference was calculated. Mucosa was scraped using a glass slide, collected and weighed. Bowel and mucosal weight was calculated per cm of bowel length per 100 g of body weight as described previously [Sukhotnik I, et al., 2002, J Surg Res., December; 108(2):235-42]. Although bowel length may change due to spasm or bowel distension, the calculation per unit of bowel length is considered to be the gold standard in describing structural changes in intestine. DNA and protein were extracted using TRIzol reagent (Rhenium LTD, Jerusalem). The DNA concentrations were recorded in a spectrophotometer and calculated per cm of bowel length. Final protein concentration was measured spectrophotometrically using a commercially available kit (Bio-Rad, Protein Assay) and was calculated per cm of bowel length.
Statistical analysis: The data are expressed as the mean±SEM. A paired Student's t-test and the non-parametric Kruskal-Wallis ANOVA test were used as indicted. p<0.05 was considered statistically significant.

[3] = SBS rats, oral insulin, vs SBS-untreated
[4] = SBS-insulin rats vs SBS-untreated, 14 days, p<0.05
[5] = SBS rats, oral insulin 1 u/ml in water, 14 days, vs SBS-untreated, p<0.05
[6] = SBS rats, oral insulin supplementation (summary)

insulin
apoptotic cells number in ileum (enterocytes; vs SBS-untreated): did not affect
apoptotic index in jejunum (enterocytes; SBS-untreated 29±7, mean±SEM, p<0.05): 11±3 TUNEL positive cells/10 villi
villi height in jejunum [1, 3]: not associated with an increase
increase in ileal crypt depth [1, 4]: 40%
increase in ileal villus height [1, 4]: 15%
increase in jejunal crypt depth [1, 4]: 15%
additional increase in ileal overall bowel weight [2, 5]: 40%
additional increase in jejunal mucosal weight [2, 5]: 33%
additional increase in jejunal overall bowel weight [2, 5]: 18%
increase in ileal mucosal DNA content [2, 5]: almost two-fold increase
increase in ileal mucosal protein content [2, 5]: two-fold increase
increase in ileal mucosal weight [2, 5]: almost two fold increase
increase in mucosal weight in the remaining segments [2, 6]: 30-200%
increase in overall bowel weight in the remaining segments [2, 6]: 20-50%
increase in bowel diameter ([2]; SBS rats, oral insulin supplementation, remaining segments (summary)): approximately 10%
mucosal DNA in jejunum [2, 3]: not associated with an increase
mucosal protein in jejunum [2, 3]: not associated with an increase
body weight gain ([2]; SBS-INS rats (insulin 1 u/ml in water) vs SBS-nontreated, day 7 through 14, p<0.05): gained weight at greater rate
jejunal and ileal bowel circumference ([2]; SBS-insulin rats vs SBS-untreated, 14 days, insulin 1 u/ml in water): additional increase
